Structures can show the parent of a compound that is named as a salt.

T1 sequence (Q9HBA0 whole entry): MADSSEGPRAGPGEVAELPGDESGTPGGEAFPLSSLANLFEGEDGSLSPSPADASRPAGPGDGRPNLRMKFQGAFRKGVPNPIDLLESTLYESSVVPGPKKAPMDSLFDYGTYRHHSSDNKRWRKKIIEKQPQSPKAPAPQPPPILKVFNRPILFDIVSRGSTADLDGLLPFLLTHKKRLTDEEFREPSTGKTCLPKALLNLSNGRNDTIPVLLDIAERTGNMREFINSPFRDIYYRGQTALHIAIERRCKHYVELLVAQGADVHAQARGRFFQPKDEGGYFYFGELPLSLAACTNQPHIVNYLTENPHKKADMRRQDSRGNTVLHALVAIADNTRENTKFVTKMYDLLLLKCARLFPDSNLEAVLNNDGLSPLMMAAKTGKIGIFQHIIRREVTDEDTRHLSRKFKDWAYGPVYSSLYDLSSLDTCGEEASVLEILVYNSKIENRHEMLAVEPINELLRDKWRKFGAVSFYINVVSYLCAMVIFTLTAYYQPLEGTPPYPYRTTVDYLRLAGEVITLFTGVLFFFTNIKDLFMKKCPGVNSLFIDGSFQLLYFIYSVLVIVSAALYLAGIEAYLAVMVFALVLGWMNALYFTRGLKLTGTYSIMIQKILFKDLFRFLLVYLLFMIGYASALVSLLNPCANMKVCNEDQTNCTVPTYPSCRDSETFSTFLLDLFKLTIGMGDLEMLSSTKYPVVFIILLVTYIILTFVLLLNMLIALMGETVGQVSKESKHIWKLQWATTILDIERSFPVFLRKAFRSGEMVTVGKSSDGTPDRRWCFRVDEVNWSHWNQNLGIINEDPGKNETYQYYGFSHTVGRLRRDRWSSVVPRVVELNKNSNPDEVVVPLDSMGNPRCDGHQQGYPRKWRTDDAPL

This assay has as its target T1, human TRPV4 (Homo sapiens, UniProt Q9HBA0).
T1 construct: expressed in transfected cells
Kind of assay: Fluorometric cell-based Ca2+ flux assay, HEK-293 cells stably overexpressing human TRPV4. Particulars: HEK-293 stably overexpressing human TRPV4; agonist GSK1016790A 30 nM. The method, then:
Fluorometric cell-based Ca^2+ flux assays were performed to assess TRPV4 antagonist activity and determine potency (IC50 values) in human embryonic kidney-293 cells (HEK-293) that stably overexpress human TRPV4. The assays were performed according to methods described in: Deering-Rice, C. E., Johansen, M. E., Roberts, J. K., Thomas, K. C., Romero, E. G., Lee, J., Yost, G. S., Veranth, J. M., and Reilly, C. A. (2012), Mol. Pharmacol. 81(3), 411-419; Shapiro, D., Deering-Rice, C. E., Romero, E. G., Hughen, R. W., Light, A. R., Veranth, J. M., and Reilly, C. A. (2013), Chem Res. Toxicol., 26, 750-758; and Deering-Rice, C. E., Mitchell, V. K., Romero, E. G., Abdel Aziz, M. H., and Reilly, C. A. (2014), Pharmacol. Res. & Perspectives. 2(5), 1-10.
The HEK-293 cells stably overexpressing human TRPV4 were grown to confluence in 2% (w/v) gelatin-coated 96-well plates in DMEM:F12 media supplemented with 5% fetal bovine serum, 1× penicillin/streptomycin (Invitrogen) and Geneticin (300 μg/mL).
The HEK-293 cells were prepared for assay by replacing the growth media with a 1:1 solution of LHC-9 and Fluo 4-Direct (Invitrogen) reagent containing Fluo 4-AM, pluronic F-127, probenecid, and a proprietary quencher dye. The cells were then incubated at 37° C. for 1 h in a cell culture incubator. The cells were subsequently washed by replacing the loading solution with LHC-9 containing 1 mM water-soluble probenecid (Invitrogen), 750 μM Trypan Red (ATT Bioquest), and a test compound (at various concentrations). The cells were incubated for an additional 30 minutes at 37° C. to allow for Fluo 4-AM cleavage and activation, as well as equilibration to both the test compounds and Fluo 4.
An agonist treatment solution (90 nM GSK1016790A, a potent activator of TRPV4) was prepared in LHC9 at 3× concentration and 25 μL was added to 50 μL of media on the cells in 96 well plates, providing a final concentration of 30 nM. Changes in cellular fluorescence were monitored with a BMG Labtech NOVOStar fluorescence plate reader for 1 minute at 37° C. Data were quantified as the maximum rate of change in fluorescence intensity (max ΔF/s), corrected for media only treatment (negative control), and represented as the percentage of response relative to the no antagonist control. A minimum of three replicates were used for each treatment condition, with a minimum of 8 concentrations to derive the IC50 values reported for each antagonist. The IC50 values for each antagonist, which are shown in Table 4 below, were calculated according to methods described in the assays were performed according to methods described in: Deering-Rice, C. E., Johansen, M. E., Roberts, J. K., Thomas, K. C., Romero, E. G., Lee, J., Yost, G. S., Veranth, J. M., and Reilly, C. A. (2012), Mol. Pharmacol. 81(3), 411-419; Shapiro, D., Deering-Rice, C. E., Romero, E. G., Hughen, R. W., Light, A. R., Veranth, J. M., and Reilly, C. A. (2013), Chem Res. Toxicol., 26, 750-758; and Deering-Rice, C. E., Mitchell, V. K., Romero, E. G., Abdel Aziz, M. H., and Reilly, C. A. (2014), Pharmacol. Res. & Perspectives. 2(5), 1-10.
For orientation: Calcium assays in cells follow changes in intracellular calcium, usually with a dye or a luminescent sensor.
For orientation: IC50 means the concentration needed to halve the response being measured. A lower IC50 goes with greater potency. In the case of `N#Cc1ccc(OCC2(CNCC3CCOCC3)CN(S(=O)(=O)c3ccc(Cl)cc3Cl)C2)cc1F` [Compound 29, 4-((1-((2,4-Dichlorophenyl)sulfonyl)-3-((((tetrahydro-2H-pyran-4-yl)methyl)amino)methyl)azetidin-3-yl)methoxy)-2-fluorobenzonitrile hydrochloride], the half-inhibitory concentration (IC50) came out at 5.2 nM. That is a single-digit nanomolar value.

Molecule `C[C@@H](O)CNCC1(COc2ccc(C#N)c(F)c2)CN(S(=O)(=O)c2ccc(Cl)cc2Cl)C1` [Compound 30, (R)-4-((1-((2,4-Dichlorophenyl)sulfonyl)-3-(((2-hydroxypropyl)amino)methyl)azetidin-3-yl)methoxy)-2-fluorobenzonitrile hydrochloride] yielded an IC50 of 0.3 nM. This IC50 is about 17-fold lower than that of the molecule before. In turn, `C[C@H](O)CNCC1(COc2ccc(C#N)c(F)c2)CN(S(=O)(=O)c2ccc(Cl)cc2Cl)C1` [Compound 31, (S)-4-((1-((2,4-dichlorophenyl)sulfonyl)-3-(((2-hydroxypropyl)amino)methyl)azetidin-3-yl)methoxy)-2-fluorobenzonitrile hydrochloride] came in with a half-inhibitory concentration (IC50) of 0.4 nM. The molecule `CC(CO)NCC1(COc2ccc(C#N)c(F)c2)CN(S(=O)(=O)c2ccc(Cl)cc2Cl)C1` (stereo not shown) [Compound 32, 4-((1-((2,4-Dichlorophenyl)sulfonyl)-3-(((1-hydroxypropan-2-yl)amino)methyl)azetidin-3-yl)methoxy)-2-fluorobenzonitrile hydrochloride] gave a concentration for half-maximal inhibition (IC50) of 0.3 nM. The IC50 values of the last two molecules are within 1.5-fold of each other. With `N#Cc1ccc(OCC2(CNCC(O)CO)CN(S(=O)(=O)c3ccc(Cl)cc3Cl)C2)cc1F` (stereo not shown) [Compound 33, 4-((1-((2,4-Dichlorophenyl)sulfonyl)-3-(((2,3-dihydroxypropyl)amino)methyl)azetidin-3-yl)methoxy)-2-fluorobenzonitrile hydrochloride], the half-maximal inhibitory concentration (IC50) was 0.3 nM.

As for `CC(CO)CNCC1(COc2ccc(C#N)c(F)c2)CN(S(=O)(=O)c2ccc(Cl)cc2Cl)C1` (stereo not shown) [Compound 34, 4-((1-((2,4-Dichlorophenyl)sulfonyl)-3-(((3-hydroxy-2-methylpropyl)amino)methyl)azetidin-3-yl)methoxy)-2-fluorobenzonitrile hydrochloride], the IC50 worked out at 0.2 nM. In the case of `CC(O)CCNCC1(COc2ccc(C#N)c(F)c2)CN(S(=O)(=O)c2ccc(Cl)cc2Cl)C1` (stereo not shown) [Compound 35, 4-((1-((2,4-dichlorophenyl)sulfonyl)-3-(((3-hydroxybutyl)amino)methyl)azetidin-3-yl)methoxy)-2-fluorobenzonitrile hydrochloride], the IC50 was 0.7 nM. Compared with the last molecule, the IC50 is about 3.5-fold higher. Consider `N#CCCNCC1(COc2ccc(C#N)c(F)c2)CN(S(=O)(=O)c2ccc(Cl)cc2Cl)C1` [Compound 36, 4-((3-(((2-Cyanoethyl)amino)methyl)-1-((2,4-dichlorophenyl)sulfonyl)azetidin-3-yl)methoxy)-2-fluorobenzonitrile], for which the IC50 was found to be 10 nM. For `CCOC(=O)CCNCC1(COc2ccc(C#N)c(F)c2)CN(S(=O)(=O)c2ccc(Cl)cc2Cl)C1` [Compound 37, Ethyl 3-(((3-((4-Cyano-3-fluorophenoxy)methyl)-1-((2,4-dichlorophenyl)sulfonyl)azetidin-3-yl)methyl)amino)propanoate hydrochloride], the IC50 turned out to be 3.3 nM. This IC50 lies about 3-fold lower than the previous one.

As to `N#Cc1ccc(OCC2(CN[C@H]3C[C@@H](O)C3)CN(S(=O)(=O)c3ccc(Cl)cc3Cl)C2)cc1F` [Compound 38, 4-((1-((2,4-Dichlorophenyl)sulfonyl)-3-((((cis)-3-hydroxycyclobutyl)amino)methyl)azetidin-3-yl)methoxy)-2-fluorobenzonitrile hydrochloride], the IC50 turned out to be 1.8 nM. Next, `N#Cc1ccc(OCC2(CN[C@H]3CC[C@@H](O)CC3)CN(S(=O)(=O)c3ccc(Cl)cc3Cl)C2)cc1F` [Compound 39, 4-((1-((2,4-Dichlorophenyl)sulfonyl)-3-((((cis)-4-hydroxycyclohexyl)amino)methyl)azetidin-3-yl)methoxy)-2-fluorobenzonitrile hydrochloride]: 1.3 nM; `N#Cc1ccc(OCC2(CNC[C@H]3CCCO3)CN(S(=O)(=O)c3ccc(Cl)cc3Cl)C2)cc1F` [Compound 40, (R)-4-((1-((2,4-dichlorophenyl)sulfonyl)-3-((((tetrahydrofuran-2-yl)methyl)amino)methyl)azetidin-3-yl)methoxy)-2-fluorobenzonitrile hydrochloride]: 13.4 nM. For `N#Cc1ccc(OCC2(CN[C@H]3CC[C@H](O)CC3)CN(S(=O)(=O)c3ccc(Cl)cc3Cl)C2)cc1F` [Compound 41, 4-((1-((2,4-Dichlorophenyl)sulfonyl)-3-((((trans)-4-hydroxycyclohexyl)amino)methyl)azetidin-3-yl)methoxy)-2-fluorobenzonitrile hydrochloride], the IC50 was 0.3 nM. For `N#Cc1ccc(OCC2(CN[C@H]3C[C@H](O)C3)CN(S(=O)(=O)c3ccc(Cl)cc3Cl)C2)cc1F` [Compound 42, 4-((1-((2,4-Dichlorophenyl)sulfonyl)-3-((((trans)-3-hydroxycyclobutyl)amino)methyl)azetidin-3-yl)methoxy)-2-fluorobenzonitrile hydrochloride], the 50% inhibitory concentration (IC50) is 1.3 nM. `N#Cc1ccc(OCC2(CN)CN(S(=O)(=O)c3ccc(Cl)cc3Cl)C2)cc1F` [Compound 44, 4-((3-(Aminomethyl)-1-((2,4-dichlorophenyl)sulfonyl)azetidin-3-yl)methoxy)-2-fluorobenzonitrile] came in with an IC50 of 8.7 nM. The molecule `CC(=O)NCC1(COc2ccc(C#N)c(F)c2)CN(S(=O)(=O)c2ccc(Cl)cc2Cl)C1` [Compound 45, N-((3-((4-Cyano-3-fluorophenoxy)methyl)-1-((2,4-dichlorophenyl)sulfonyl)azetidin-3-yl)methyl)acetamide] gave a 50% inhibitory concentration (IC50) of 3000 nM. Consider `N#Cc1ccc(OCC2(CNC(=O)CN)CN(S(=O)(=O)c3ccc(Cl)cc3Cl)C2)cc1F` [Compound 46, 2-Amino-N-((3-((4-cyano-3-fluorophenoxy)methyl)-1-((2,4-dichlorophenyl)sulfonyl)azetidin-3-yl)methyl)acetamide], for which the IC50 turned out to be 52 nM. To `N#Cc1ccc(OCC2(CNC(=O)CO)CN(S(=O)(=O)c3ccc(Cl)cc3Cl)C2)cc1F` [Compound 47, N-((3-((4-Cyano-3-fluorophenoxy)methyl)-1-((2,4-dichlorophenyl)sulfonyl)azetidin-3-yl)methyl)-2-hydroxyacetamide] belongs 348 nM.

For the molecule `CNCC(=O)NCC1(COc2ccc(C#N)c(F)c2)CN(S(=O)(=O)c2ccc(Cl)cc2Cl)C1` [Compound 48, N-((3-((4-Cyano-3-fluorophenoxy)methyl)-1-((2,4-dichlorophenyl)sulfonyl)azetidin-3-yl)methyl)-2-(methylamino)acetamide], the IC50 stood at 252 nM. Next, `N#Cc1ccc(OCC2(CNS(=O)(=O)CCN)CN(S(=O)(=O)c3ccc(Cl)cc3Cl)C2)cc1F` [Compound 49, 2-Amino-N-((3-((4-cyano-3-fluorophenoxy)methyl)-1-((2,4-dichlorophenyl)sulfonyl)azetidin-3-yl)methyl)ethane-1-sulfonamide]: 110 nM; `N#Cc1ccc(OCC2(CN3CCOCC3)CN(S(=O)(=O)c3ccc(Cl)cc3Cl)C2)cc1F` [Compound 50, 4-((1-((2,4-Dichlorophenyl)sulfonyl)-3-(morpholinomethyl)azetidin-3-yl)methoxy)-2-fluorobenzonitrile hydrochloride]: 794 nM; `CC(C)(C)OC(=O)NC1(COc2ccc(C#N)c(F)c2)CN(S(=O)(=O)c2ccc(Cl)cc2Cl)C1` [Compound 51, tert-Butyl (3-((4-cyano-3-fluorophenoxy)methyl)-1-((2,4-dichlorophenyl)sulfonyl)azetidin-3-yl)carbamate]: 3350 nM.

Source of the values: patent US20230026696A1, “TRPV4 RECEPTOR LIGANDS” (UNIVERSITY OF UTAH RESEARCH FOUNDATION, priority 2019, published 2023).
